Experimental data: patent US20070112176A1, “Lipid membrane structure containing anti-mt-mmp monoclonal antibody” (DAIICHI PHARMACEUTICAL CO., LTD., priority 2003, published 2007)

Tested on: HT1080 cells
Assay: Cytostatic test of liposomes with various antibody binding ratios, Test Example 6
Format: cell-based, human
Conditions: control group; free DOX 100 μg/mL, used as start value
Procedure: According to the method described in Test Example 2-1), the cytostatic ability of various antibody-binding liposomes was evaluated by using the HT1080 cells. The cells were adhered to a 96-well plate, then added with anti-MT1-MMP monoclonal antibody (clone number: 222-1D8)-binding and anticancer agent-encapsulating liposomes (Fab′(222-1D8)-DOX-LP), and cultured for 1 hour. After the culture, the cells were washed, added with a fresh medium, and further cultured for 24 hours. After the cells were washed and cultured for 24 hours, a cell counting assay was performed, and A450 serving as an index of viable cell count was plotted. Means±S.D. (n=4) was indicated for each group. As control, only the medium (control), anticancer agent-encapsulating liposomes not bound with antibody (DOX-LP (Preparation Example (11)) or the anticancer agent alone (free DOX) was added instead of Fab′(222-1D8)-DOX-LP. A group in which only the medium was similarly treated without adding the cells was used as a blank. It was confirmed by multiple times of experiments that the start value used in the calculation of inhibitory rate and the like in Test Example 2 was not substantially different from the absorbance obtained with 100 μg/mL of DOX alone (free DOX) used as the sample, and therefore the value obtained for the 100 μg/mL free DOX group was used as the start value. […]

## COc1cccc2c1C(=O)c1c(O)c3c(c(O)c1C2=O)C[C@@](O)(C(=O)CO)C[C@@H]3O[C@H]1C[C@H](N)[C@H](O)[C@H](C)O1 [Free DOX, doxorubicin]
  Cytostatic ratio for HT1080 cells: 100%
